Data reported in ChEMBL document CHEMBL2146392, “Minutissamides E-L, antiproliferative cyclic lipodecapeptides from the cultured freshwater cyanobacterium cf. Anabaena sp” (Bioorg Med Chem, 2012).
The source made the active and inactive calls. The rule behind the calls is not given here.

Key:
Acinetobacter baumannii = assay: Antibacterial activity against Acinetobacter baumannii at 10 ug/ml; type: functional, organism-based
Pseudomonas aeruginosa = assay: Antibacterial activity against Pseudomonas aeruginosa at 10 ug/ml; type: functional, organism-based
[1] = test system: Mycolicibacterium smegmatis; assay: Antibacterial activity against Mycobacterium smegmatis at 10 ug/ml; type: functional, organism-based
Staphylococcus aureus = assay: Antibacterial activity against Staphylococcus aureus at 10 ug/ml; type: functional, organism-based
Enterococcus faecalis = assay: Antibacterial activity against Enterococcus faecalis at 10 ug/ml; type: functional, organism-based
Streptococcus pneumoniae = assay: Antibacterial activity against Streptococcus pneumoniae at 10 ug/ml; type: functional, organism-based
Escherichia coli = assay: Antibacterial activity against Escherichia coli at 10 ug/ml; type: functional, organism-based
MDA-MB-435 = assay: Antiproliferative activity against human MDA-MB-435 cells assessed as cell viability at 1 ng/ml after 96 hrs; type: functional; conditions: MDA-MB-435, 96 h, read-out: Activity

SMILES	Activity (Acinetobacter baumannii)	Activity (Pseudomonas aeruginosa)	Activity [1]	Activity (Staphylococcus aureus)	Activity (Enterococcus faecalis)	Activity (Streptococcus pneumoniae)	Activity (Escherichia coli)	viability at 0.001 µg/mL (MDA-MB-435) [%]
C/C=C1/NC(=O)[C@H](C(C)C)NC(=O)[C@H](O)[C@@H]([C@@H](C)CCCCCCCCCCC(=O)CCC)NC(=O)[C@@H]2CCCN2C(=O)[C@H](CC(N)=O)N(C)C(=O)[C@H]([C@@H](C)OC)NC(=O)CNC(=O)[C@H](CCC(N)=O)NC(=O)[C@H]([C@@H](C)O)NC(=O)[C@H]([C@@H](C)O)NC1=O	inactive	inactive	inactive	inactive	inactive	inactive	inactive	–
C/C=C1/NC(=O)[C@H](C(C)C)NC(=O)[C@H](O)[C@@H]([C@@H](C)CCCCCCCCCCC(=O)CCC)NC(=O)[C@@H]2CCCN2C(=O)[C@H](CC(N)=O)N(C)C(=O)[C@H]([C@@H](C)OC)NC(=O)[C@@H](C)NC(=O)[C@H](CCC(N)=O)NC(=O)[C@H]([C@@H](C)O)NC(=O)[C@H]([C@@H](C)O)NC1=O	inactive	inactive	inactive	inactive	inactive	inactive	inactive	–
C/C=C1/NC(=O)[C@H](C(C)C)NC(=O)[C@H](O)[C@@H]([C@@H](C)CCCCCCCCCCC(O)CCC)NC(=O)[C@@H]2CCCN2C(=O)[C@H](CC(N)=O)N(C)C(=O)[C@H]([C@@H](C)OC)NC(=O)[C@@H](C)NC(=O)[C@H](CCC(N)=O)NC(=O)[C@H]([C@@H](C)O)NC(=O)[C@H]([C@@H](C)O)NC1=O (stereo partly drawn)	inactive	inactive	inactive	inactive	inactive	inactive	inactive	–
C/C=C1/NC(=O)[C@H](C(C)C)NC(=O)[C@H](O)[C@@H]([C@@H](C)CCCCCCCCCCC(=O)CCC)NC(=O)[C@@H]2CCCN2C(=O)[C@H](CC(N)=O)N(C)C(=O)[C@H]([C@@H](C)OC)NC(=O)[C@@H](C)NC(=O)[C@H](CCC(N)=O)NC(=O)[C@H](C(C)C)NC(=O)[C@H]([C@@H](C)O)NC1=O	inactive	inactive	inactive	inactive	inactive	inactive	inactive	–
CC[C@]1(O)C[C@@H]2CN(CCc3c([nH]c4ccccc34)[C@@](C(=O)OC)(c3cc4c(cc3OC)N(C)[C@H]3[C@@](O)(C(=O)OC)[C@H](OC(C)=O)[C@]5(CC)C=CCN6CC[C@]43[C@@H]65)C2)C1 [VINBLASTINE]	–	–	–	–	–	–	–	49
C/C=C1/NC(=O)[C@H](C(C)C)NC(=O)[C@H](O)[C@@H]([C@@H](C)CCCCCCCC(Cl)CC)NC(=O)[C@@H]2CCCN2C(=O)[C@H](CC(N)=O)N(C)C(=O)[C@H]([C@@H](C)OC)NC(=O)[C@@H](C)NC(=O)[C@H](CCC(N)=O)NC(=O)[C@H]([C@@H](C)O)NC(=O)[C@H]([C@@H](C)O)NC1=O (stereo partly drawn)	inactive	inactive	inactive	inactive	inactive	inactive	inactive	–
C/C=C1/NC(=O)[C@H](C(C)C)NC(=O)[C@H](O)[C@@H]([C@@H](C)CCCCCCCC(Cl)CC)NC(=O)[C@@H]2CCCN2C(=O)[C@H](CC(N)=O)N(C)C(=O)[C@H]([C@@H](C)OC)NC(=O)CNC(=O)[C@H](CCC(N)=O)NC(=O)[C@H]([C@@H](C)O)NC(=O)[C@H]([C@@H](C)O)NC1=O (stereo partly drawn)	inactive	inactive	inactive	inactive	inactive	inactive	inactive	–
